Measured values as given in US11524938B2, “Aromatic sulfonamide derivatives” (Bayer Pharma Aktiengesellschaft, priority 2016, dated 2022).

Molecular target: T1, human P2X4 (Homo sapiens, UniProt Q99571)
T1 sequence (Q99571 1-388): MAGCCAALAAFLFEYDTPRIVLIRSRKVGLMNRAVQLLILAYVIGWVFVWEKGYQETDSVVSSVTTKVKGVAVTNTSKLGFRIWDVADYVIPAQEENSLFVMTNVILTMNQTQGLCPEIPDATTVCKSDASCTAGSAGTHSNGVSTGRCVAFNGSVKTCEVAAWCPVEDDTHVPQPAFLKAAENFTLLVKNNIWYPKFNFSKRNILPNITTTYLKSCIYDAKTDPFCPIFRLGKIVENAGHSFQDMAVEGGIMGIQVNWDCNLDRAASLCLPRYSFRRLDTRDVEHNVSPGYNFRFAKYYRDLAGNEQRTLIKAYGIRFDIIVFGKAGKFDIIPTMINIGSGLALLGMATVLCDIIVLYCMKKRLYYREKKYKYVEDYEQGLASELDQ
Test: Human P2X4 HEK Cell FLIPR Assay
Type: cell-based
Settings: agonist Bz-ATP at EC80; for Emax: HEK293, HEK293 cells, percentage of maximal inhibition, read-out: Human P2X4 HEK Cells (FLIPR Assay) avg Efficacy [%]; for IC50: HEK293 cells, individual values listed where some fall outside detection range
Summary of the method: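 Calcium flux read by FLIPR for 120 sec after Bz-ATP challenge at EC80 (established each assay day), following 30 min room-temperature compound preincubation in dye-loaded stable human P2X4 HEK293 cells. Peak RFU over basal normalized to agonist control; IC50, maximal inhibition and Hill coefficient from triplicate means.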

Compound	Emax [%]	IC50 [nM]
NS(=O)(=O)c1cc(NC(=O)Cc2ccccc2OC(F)F)ccc1-n1cc(Cl)cn1 [Example 91, N-[4-(4-Chloro-1H-pyrazol-1-yl)-3-sulfamoylphenyl]-2-[2-(difluoromethoxy)-phenyl]acetamide]	94	169
NS(=O)(=O)c1cc(NC(=O)Cc2cc(F)c(F)cc2Cl)ccc1-n1cc(Cl)cn1 [Example 93, 2-(2-Chloro-4,5-difluorophenyl)-N-[4-(4-chloro-1H-pyrazol-1-yl)-3-sulfamoylphenyl]-acetamide]	73	74
Cc1ccc(F)c(CC(=O)Nc2ccc(-n3cc(Cl)cn3)c(S(N)(=O)=O)c2)c1Cl [Example 95, 2-(2-Chloro-6-fluoro-3-methylphenyl)-N-[4-(4-chloro-1H-pyrazol-1-yl)-3-sulfamoyl-phenyl]acetamide]	87	54
CC(C)c1ccccc1CC(=O)Nc1ccc(-n2cc(Cl)cn2)c(S(N)(=O)=O)c1 [Example 100, N-[4-(4-Chloro-1H-pyrazol-1-yl)-3-sulfamoylphenyl]-2-(2-isopropylphenyl)acetamide]	86	319
NS(=O)(=O)c1cc(NC(=O)Cc2c(F)cc(F)cc2Cl)ccc1-n1cc(Cl)cn1 [Example 102, 2-(2-Chloro-4,6-difluorophenyl)-N-[4-(4-chloro-1H-pyrazol-1-yl)-3-sulfamoylphenyl]-acetamide]	80	99
Cc1cc(F)c(Br)cc1CC(=O)Nc1ccc(-n2cc(Cl)cn2)c(S(N)(=O)=O)c1 [Example 104, 2-(5-Bromo-4-fluoro-2-methylphenyl)-N-[4-(4-chloro-1H-pyrazol-1-yl)-3-sulfamoyl-phenyl]acetamide]	95	2230
CC(C(=O)Nc1ccc(-n2cc(Cl)cn2)c(S(N)(=O)=O)c1)c1c(F)cccc1F (centres unmarked) [Example 106, N-[4-(4-Chloro-1H-pyrazol-1-yl)-3-sulfamoylphenyl]-2-(2,6-difluorophenyl)-propanamide]	92	4630
NS(=O)(=O)c1cc(NC(=O)Cc2ccc(C(F)F)cc2)ccc1-n1cc(Cl)cn1 [Example 107, N-[4-(4-Chloro-1H-pyrazol-1-yl)-3-sulfamoylphenyl]-2-[4-(difluoromethyl)-phenyl]acetamide]	44	> 25000
NS(=O)(=O)c1cc(NC(=O)Cc2ccc(Cl)cc2)ccc1-n1cc(C(F)(F)F)cn1 [Example 108, 2-(4-Chlorophenyl)-N-{3-sulfamoyl-4-[4-(trifluoromethyl)-1H-pyrazol-1-yl]phenyl}-acetamide]	35	> 25000
NS(=O)(=O)c1cc(NC(=O)Cc2ccccc2[N+](=O)[O-])ccc1-n1cc(C(F)(F)F)cn1 [Example 110, 2-(2-Nitrophenyl)-N-{3-sulfamoyl-4-[4-(trifluoromethyl)-1H-pyrazol-1-yl]phenyl}-acetamide]	51	267
COc1ccccc1CC(=O)Nc1ccc(-n2cc(C(F)(F)F)cn2)c(S(N)(=O)=O)c1 [Example 112, 2-(2-Methoxyphenyl)-N-{3-sulfamoyl-4-[4-(trifluoromethyl)-1H-pyrazol-1-yl]phenyl}-acetamide]	62	263
NS(=O)(=O)c1cc(NC(=O)Cc2cccc(F)c2)ccc1-n1cc(C(F)(F)F)cn1 [Example 114, 2-(3-Fluorophenyl)-N-{3-sulfamoyl-4-[4-(trifluoromethyl)-1H-pyrazol-1-yl]phenyl}-acetamide]	69	367
NS(=O)(=O)c1cc(NC(=O)Cc2cc(F)cc(F)c2)ccc1-n1cc(C(F)(F)F)cn1 [Example 115, 2-(3,5-Difluorophenyl)-N-{3-sulfamoyl-4-[4-(trifluoromethyl)-1H-pyrazol-1-yl]phenyl}-acetamide]	57	802

Next, values leading:

Emax [%]	IC50 [nM]	Compound
82	342	NS(=O)(=O)c1cc(NC(=O)Cc2cccc(F)c2F)ccc1-n1cc(Cl)cn1 [Example 87, N-[4-(4-Chloro-1H-pyrazol-1-yl)-3-sulfamoylphenyl]-2-(2,3-difluorophenyl)acetamide]
87	80	NS(=O)(=O)c1cc(NC(=O)Cc2ccc(F)cc2Cl)ccc1-n1cc(Cl)cn1 [Example 88, 2-(2-Chloro-4-fluorophenyl)-N-[4-(4-chloro-1H-pyrazol-1-yl)-3-sulfamoyl-phenyl]acetamide]
83	2320	NS(=O)(=O)c1cc(NC(=O)Cc2cccnc2Cl)ccc1-n1cc(Cl)cn1 [Example 89, N-[4-(4-Chloro-1H-pyrazol-1-yl)-3-sulfamoylphenyl]-2-(2-chloropyridin-3-yl)-acetamide]
85	774	NS(=O)(=O)c1cc(NC(=O)Cc2cccc(C(F)(F)F)c2Cl)ccc1-n1cc(Cl)cn1 [Example 90, N-[4-(4-Chloro-1H-pyrazol-1-yl)-3-sulfamoylphenyl]-2-[2-chloro-3-(trifluoromethyl)-phenyl]acetamide]
92	143	NS(=O)(=O)c1cc(NC(=O)Cc2ccccc2OC(F)(F)F)ccc1-n1cc(Cl)cn1 [Example 92, N-[4-(4-Chloro-1H-pyrazol-1-yl)-3-sulfamoylphenyl]-2-[2-(trifluoromethoxy)-phenyl]acetamide]
72	413	COc1ccc(CC(=O)Nc2ccc(-n3cc(Cl)cn3)c(S(N)(=O)=O)c2)c(Cl)c1 [Example 94, 2-(2-Chloro-4-methoxyphenyl)-N-[4-(4-chloro-1H-pyrazol-1-yl)-3-sulfamoylphenyl]-acetamide]
83	233	NS(=O)(=O)c1cc(NC(=O)Cc2c(F)ccc(F)c2Cl)ccc1-n1cc(Cl)cn1 [Example 96, 2-(2-Chloro-3,6-difluorophenyl)-N-[4-(4-chloro-1H-pyrazol-1-yl)-3-sulfamoylphenyl]-acetamide]
103	201	Cc1ccc(Cl)c(CC(=O)Nc2ccc(-n3cc(Cl)cn3)c(S(N)(=O)=O)c2)c1 [Example 97, 2-(2-Chloro-5-methylphenyl)-N-[4-(4-chloro-1H-pyrazol-1-yl)-3-sulfamoylphenyl]-acetamide]
77	124	NS(=O)(=O)c1cc(NC(=O)Cc2cc(F)ccc2Cl)ccc1-n1cc(Cl)cn1 [Example 98, 2-(2-Chloro-5-fluorophenyl)-N-[4-(4-chloro-1H-pyrazol-1-yl)-3-sulfamoylphenyl]-acetamide]
87	499	NS(=O)(=O)c1cc(NC(=O)Cc2cc(Cl)ccc2Cl)ccc1-n1cc(Cl)cn1 [Example 99, N-[4-(4-Chloro-1H-pyrazol-1-yl)-3-sulfamoylphenyl]-2-(2,5-dichlorophenyl)acetamide]
83	202	COc1ccc(Cl)c(CC(=O)Nc2ccc(-n3cc(Cl)cn3)c(S(N)(=O)=O)c2)c1 [Example 101, 2-(2-Chloro-5-methoxyphenyl)-N-[4-(4-chloro-1H-pyrazol-1-yl)-3-sulfamoylphenyl]-acetamide]
103	174	NS(=O)(=O)c1cc(NC(=O)Cc2c(Cl)cccc2C(F)(F)F)ccc1-n1cc(Cl)cn1 [Example 103, N-[4-(4-Chloro-1H-pyrazol-1-yl)-3-sulfamoylphenyl]-2-[2-chloro-6-(trifluoromethyl)-phenyl]acetamide]
101	108	COc1cccc(Cl)c1CC(=O)Nc1ccc(-n2cc(Cl)cn2)c(S(N)(=O)=O)c1 [Example 105, 2-(2-Chloro-6-methoxyphenyl)-N-[4-(4-chloro-1H-pyrazol-1-yl)-3-sulfamoyl-phenyl]acetamide]
86	655	NS(=O)(=O)c1cc(NC(=O)C(F)(F)c2ccccc2Cl)ccc1-n1cc(Cl)cn1 [Example 109, 2-(2-Chlorophenyl)-N-[4-(4-chloro-1H-pyrazol-1-yl)-3-sulfamoylphenyl]-2,2-difluoroacetamide]
58	373	NS(=O)(=O)c1cc(NC(=O)Cc2ccc(Cl)cc2Cl)ccc1-n1cc(C(F)(F)F)cn1 [Example 111, 2-(2,4-Dichlorophenyl)-N-{3-sulfamoyl-4-[4-(trifluoromethyl)-1H-pyrazol-1-yl]phenyl}-acetamide]
86	133	NS(=O)(=O)c1cc(NC(=O)Cc2c(F)cccc2Cl)ccc1-n1cc(C(F)(F)F)cn1 [Example 113, 2-(2-Chloro-6-fluorophenyl)-N-{3-sulfamoyl-4-[4-(trifluoromethyl)-1H-pyrazol-1-yl]phenyl}acetamide]
75	155	NS(=O)(=O)c1cc(NC(=O)Cc2c(Cl)cccc2Cl)ccc1-n1cc(C(F)(F)F)cn1 [Example 116, 2-(2,6-Dichlorophenyl)-N-{3-sulfamoyl-4-[4-(trifluoromethyl)-1H-pyrazol-1-yl]phenyl}-acetamide]
66	102	NS(=O)(=O)c1cc(NC(=O)Cc2ccccc2Br)ccc1-n1cc(C(F)(F)F)cn1 [Example 117, 2-(2-Bromophenyl)-N-{3-sulfamoyl-4-[4-(trifluoromethyl)-1H-pyrazol-1-yl]phenyl}-acetamide]
